{"source": "patent US10092568B2", "about": "“CBP/Catenin antagonists for enhancing asymmetric division of somatic stem cells” (University of Southern California, priority 2010, dated 2018)", "key": {"aging mice": {"test_system": "aging mice", "assay": "Long term topical treatment of aging mice", "type": "in vivo, mouse", "details": "12 months, from 6 to 18 months of age", "text": "Left mouse is control, whereas right mouse received CBP/catenin (e.g., CBP/β-catenin) antagonists (topical Laura-8 as disclosed herein) for 12 months (from 6 months of age to 18 months of age)."}, "hair-less mouse model": {"test_system": "hair-less mouse model", "assay": "Hair growth in a hair-less mouse model", "type": "in vivo", "procedure": "The ability of CBP/β-catenin antagonist to stimulate hair growth in a hair-less mouse model was tested. In brief, the animals were treated with either petroleum jelly or Laura-8 for 16 days. In addition, skin samples from each animal were taken and examined for hair-follicle formulation."}, "skin injury": {"test_system": "skin injury", "assay": "Skin injury repair in normal mice and hair-less mice models", "type": "in vivo, mouse", "details": "500 μM in vaseline once a day for eight days, both animal models", "procedure": "The ability of CBP/catenin (e.g., CBP/β-catenin) antagonist to accelerate injured skin repair in normal mice models (having full hair growth and normal fur) and hair-less mice models was tested. In brief, on day 0, the animals were subjected to skin injury in two spots on the back, hind end of each animal. Each skin injury spot was treated with 500 μM of either Vaseline (petrolatum) (vehicle) or Laura-8 in vaseline once a day for eight days."}, "p300 at Ser-89": {"test_system": "p300 at Ser-89", "assay": "Phosphorylation of p300 at Ser-89", "type": "cell-based", "text": "(§1) IQ-1. In addition to ICG-001, a screen of a large chemical library for maintenance of pluripotency in mES cells led to the identification of another compound, termed IQ-1 (FIG. 2b). […] I-Q-1 diminishes the interaction between p300 and beta-catenin thereby increasing the CBP/beta-catenin interaction (24)."}, "[1]": {"test_system": "murine embryonic stem cells (mESCs)", "assay": "Maintenance of pluripotency of embryonic stem cells in long-term culture", "type": "cell-based, mouse", "details": "Wnt-dependent", "text": "as §1\nSimilar results upon selectively antagonizing the p300/catenin interaction have also been obtained with human ES cells (32; Hasegawa, K. et al. accepted Stem Cells Translation Medicine 2011). Blocking the CBP/catenin interaction with ICG-001 can prevent the induction of pluripotency, whereas selectively antagonizing the p300/catenin interaction can enhance reprogramming (33; present applicant unpublished data)."}, "[2]": {"test_system": "p300/beta-catenin interaction", "assay": "Disruption of the p300/beta-catenin interaction", "type": "biochemical", "text": "Applicant next mapped the binding domains between CBP and beta-catenin, as well as between p300 and beta-catenin. The C-terminal trans-activating region of beta-catenin (647-781) interacted with the same 1-111 amino acids of both CBP and p300 (23). However, only the interaction between CBP and beta-catenin was disrupted by ICG-001, and not the p300/beta-catenin interaction.\nas §1"}, "[3]": {"test_system": "mitotic cells in the ventricular zone (VZ)", "assay": "Par3 localization assay of symmetric versus asymmetric divisions in the ventricular zone of embryonic brain", "type": "in vivo, mouse", "text": "Taking advantage of the ready uptake and penetration through the placental barrier of applicant's small molecule Wnt modulators, applicant designed a series of experiments to investigate symmetric versus asymmetric divisions in the ventricular zone (VZ) of the brain during mouse embryonic development. Timed pregnant mice were topically treated for various time periods (1-3 days) with DMSO (vehicle control), the CBP/catenin antagonist ICG-001 or the p300/catenin antagonist IQ-1. Using a previously described protocol (56), the localization of […] (Par3) and DNA was examined in mitotic cells in the VZ. Par3 distributes symmetrically in cells that divide symmetrically and asymmetrically in cells that divide asymmetrically, whereas the DNA distributes symmetrically between the 2 cells. Using fluorescence microscopy, the percentage of mitotic cells dividing symmetrically or asymmetrically could be quantified. […] Antagonizing the CBP/catenin interaction with ICG-001 had no apparent effect yielding similarly, approximately 21% asymmetric divisions. […] Importantly, this decrease in asymmetric divisions upon treatment with IQ-1 could be rescued back essentially to control levels (i.e. ˜21%) by treatment with a 2-fold excess of ICG-001. Even further divergence in symmetric versus asymmetric divisions could be seen upon prolonged treatments. For example, treatment with IQ-1 (i.e., antagonizing p300/catenin interaction leading to increased usage of CBP) for 3 days (E13.5-16.5) decreased asymmetric divisions compared to control from 31% to 7%. […] This reporter mouse expresses EGFP, driven by the Tis21 promoter, in cells that have undergone neurogenic differentiative divisions.\nFor example, Bultje et al. (Bultje R Neuron 63, 189-202, 2009) describe an assay to measure asymmetric distributions in the ventricular zone (vz) to evaluate asymmetric divisions during neurogenesis. Essentially this involves treating the animal (either adult or in utero) for a set period of time with compounds (either p.o., s.c., i.v. or topically) with compounds and then sacrificing the animal and examining the Par3 distribution (e.g., via immunohistochemistry) in mitotic cells vs. DNA distribution (e.g., using DAPI staining) Par3 distributes equally among the two daughter cells during symmetric division and unequally (essentially all in one daughter cell) during asymmetric differentiation."}, "[4]": {"test_system": "PR72/130 subunit of the serine/threonine phosphatase PP2A", "assay": "Binding to PP2A subunit", "text": "as §1"}, "[5]": {"test_system": "human skin (surgical waste)", "assay": "Ex vivo human skin assay, qRT-PCR", "type": "cell-based", "details": "24 hrs; 5 uM ICG-001, 5 uM methylated ICG-001, 1 ug/ml RA", "procedure": "Methods. Ex Vivo human skin assay culture conditions were based upon a paper by Varani J et al Experimental and Molecular Pathology, 2004.\nBriefly, human skin (surgical waste from plastic surgery procedures) was obtained and the subcutaneous layer of fat was trimmed manually with a scalpel. The skin was then cut into small fragments about 2 mm square and placed in 6 well plates. 1 ml of keratinocyte culture medium (Gibco 10724-011) with 1% P/S (penstrep antibiotic) was added to each well. The epidermis, bathed in media was placed facing up. On the next day (overnight culture in the media above), the skin fragments were transferred to fresh wells that contained either 5 uM ICG-001, 5-uM methylated ICG-001 or 1 ug/ml of retinoic acid (RA). After 24 hrs, skin samples in culture were removed for RNA isolation and qRT-PCR analysis of genes of interest (e.g., elastin (a gene involved in skin appearance and pliability (e.g., wrinkling)) and aquaporin 1, which is involved with hydration."}}, "note": "“Also recorded” adds a separate entry of the source.", "data": [{"smiles": "CCCCCCCCCCCC(=O)Oc1ccc(C[C@H]2C(=O)N(Cc3cccc4ccccc34)C[C@@H]3N(C(=O)NCc4ccccc4)CCC(=O)N32)cc1", "note": "[Laura-8]", "values": [{"measurement": "normal stem cell niche", "setting": "aging mice", "result": "does not deplete"}, {"measurement": "hair growth", "setting": "hair-less mouse model; 16 days, versus petroleum jelly", "result": "significant hair growth"}, {"measurement": "new hair-follicle formation", "setting": "hair-less mouse model; skin pathology", "result": "new hair-follicles were formed; also recorded: substantial new hair-follicle formation"}, {"measurement": "skin healing", "setting": "skin injury", "result": "significantly accelerated"}]}, {"smiles": "CC(=O)c1ccc(N=NC(C(N)=O)=C2NC(C)(C)Cc3ccccc32)cc1", "note": "[IQ-1, reference compound]", "values": [{"measurement": "phosphorylation of p300 at Ser-89", "setting": "p300 at Ser-89", "result": "decreased phosphorylation"}, {"measurement": "pluripotency of mESCs", "setting": "[1]", "result": "maintains the pluripotency; also recorded: prevents spontaneous differentiation"}, {"measurement": "p300/beta-catenin interaction", "setting": "[2]", "result": "diminishes"}, {"measurement": "asymmetric divisions in the VZ", "setting": "[3]; 3 days, E13.5-16.5, control 31%", "result": 7, "unit": "%"}, {"measurement": "number of symmetric differentiative divisions", "setting": "[3]; normal neural stem cells", "result": "increase"}, {"measurement": "number of asymmetric divisions compared to vehicle control", "setting": "[3]; topical or oral administration to pregnant mice", "result": "decreases"}, {"measurement": "asymmetric divisions in the VZ", "setting": "[3]; topical, 1 day, E13.5 to 14.5, DMSO approximately 21%", "result": "approximately 9%"}, {"measurement": "binding to PR72/130 subunit of PP2A", "setting": "[4]", "result": "binds"}]}, {"smiles": "C[C@H]1C2N(C(=O)NCc3ccccc3)CCC(=O)N2[C@@H](Cc2ccc(O)cc2)C(=O)N1Cc1cccc2ccccc12", "note": "(some centres unmarked) [Me-ICG-001]", "values": [{"measurement": "expression of aquaporin 1", "setting": "[5]", "result": "larger increase"}, {"measurement": "expression of elastin", "setting": "[5]", "result": "larger increase"}]}]}
